# Experimental data from PubChem BioAssay AID2060496 (Molecular Pharmacology Branch, DTP, NCI, 2025).
# Values joined by “and” are separate entries in the source; they are usually repeats but may differ in a detail not shown here. Identical values can stand only once.
# Tested on: 276233-004-R-J1-PDC complex spheroid viability
# Assay: Anticancer human tumor 276233-004-R-J1-PDC patient-derived colon adenocarcinoma cell line growth inhibition [GQUAD]
# Conditions: for viability, T/C: stronger effect = lower value
# Summary of the method: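 Multi-cell-type spheroids of tumor cells with HUVEC and mesenchymal stem cells, treated with drug combinations. Concentrations descend in half-log steps from near clinical Cmax, or from 10 microM where Cmax is unknown; viability read-out.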
# [1] = curve of first compound, second compound 0.0316 µM
# [2] = curve of first compound, second compound 0.1 µM
# [3] = curve of first compound, second compound 0.316 µM
# [4] = curve of first compound, second compound 1 µM
# [5] = curve of first compound, second compound 3.16 µM
# [6] = curve of first compound, second compound 10 µM
# [7] = second compound 0.0316 µM, first compound 0.0316 µM
# [8] = second compound 0.0316 µM, first compound 0.1 µM
# [9] = second compound 0.0316 µM, first compound 0.316 µM
# [10] = second compound 0.0316 µM, first compound 1 µM
# [11] = second compound 0.0316 µM, first compound 3.16 µM
# [12] = second compound 0.0316 µM, first compound 10 µM
# [13] = second compound 0.1 µM, first compound 0.0316 µM
# [14] = second compound 0.1 µM, first compound 0.1 µM
# [15] = second compound 0.1 µM, first compound 0.316 µM
# [16] = second compound 0.1 µM, first compound 1 µM
# [17] = second compound 0.1 µM, first compound 3.16 µM
# [18] = second compound 0.1 µM, first compound 10 µM
# [19] = second compound 0.316 µM, first compound 0.0316 µM
# [20] = second compound 0.316 µM, first compound 0.1 µM
# [21] = second compound 0.316 µM, first compound 0.316 µM
# [22] = second compound 0.316 µM, first compound 1 µM
# [23] = second compound 0.316 µM, first compound 3.16 µM
# [24] = second compound 0.316 µM, first compound 10 µM
# [25] = second compound 1 µM, first compound 0.0316 µM
# [26] = second compound 1 µM, first compound 0.1 µM
# [27] = second compound 1 µM, first compound 0.316 µM
# [28] = second compound 1 µM, first compound 1 µM
# [29] = second compound 1 µM, first compound 3.16 µM
# [30] = second compound 1 µM, first compound 10 µM
# [31] = second compound 3.16 µM, first compound 0.0316 µM
# [32] = second compound 3.16 µM, first compound 0.1 µM
# [33] = second compound 3.16 µM, first compound 0.316 µM
# [34] = second compound 3.16 µM, first compound 1 µM
# [35] = second compound 3.16 µM, first compound 3.16 µM
# [36] = second compound 3.16 µM, first compound 10 µM
# [37] = second compound 10 µM, first compound 0.0316 µM
# [38] = second compound 10 µM, first compound 0.1 µM
# [39] = second compound 10 µM, first compound 0.316 µM
# [40] = second compound 10 µM, first compound 1 µM
# [41] = second compound 10 µM, first compound 3.16 µM
# [42] = second compound 10 µM, first compound 10 µM
# 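Further: spheroids exposed to drugs for seven days.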
# 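Wherever viability, T/C is given: 100% = DMSO vehicle control viability.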
compound,measurement,setting,value
O=C(c1cc(Cc2n[nH]c(=O)c3ccccc23)ccc1F)N1CCN(C(=O)C2CC2)CC1 + Cc1[nH]c2ccc(F)cc2c1-c1nc2c3cccnc3c3ncccc3c2[nH]1,IC50,[1],> 10 µM
same,IC50,[2],> 10 µM
same,IC50,[3],> 10 µM
same,IC50,[4],> 10 µM
same,IC50,[5],> 10 µM
same,IC50,[6],< 0.0316 µM
same,"viability, T/C",[7],108%
same,"viability, T/C",[8],95.4%
same,"viability, T/C",[9],92.5%
same,"viability, T/C",[10],73.3%
same,"viability, T/C",[11],95.1%
same,"viability, T/C",[12],83.4%
same,"viability, T/C",[13],83.6%
same,"viability, T/C",[14],90.4%
same,"viability, T/C",[15],92%
same,"viability, T/C",[16],90.4%
same,"viability, T/C",[17],91.6%
same,"viability, T/C",[18],101%
same,"viability, T/C",[19],75.4%
same,"viability, T/C",[20],86.2%
same,"viability, T/C",[21],85%
same,"viability, T/C",[22],91.1%
same,"viability, T/C",[23],85.9%
same,"viability, T/C",[24],81.4%
same,"viability, T/C",[25],69%
same,"viability, T/C",[26],79.5%
same,"viability, T/C",[27],77.4%
same,"viability, T/C",[28],69.7%
same,"viability, T/C",[29],64.4%
same,"viability, T/C",[30],83.2%
same,"viability, T/C",[31],51.5%
same,"viability, T/C",[32],64.2%
same,"viability, T/C",[33],55.7%
same,"viability, T/C",[34],55%
same,"viability, T/C",[35],56.3%
same,"viability, T/C",[36],59.6%
same,"viability, T/C",[37],48.8%
same,"viability, T/C",[38],50.9%
same,"viability, T/C",[39],44.7%
same,"viability, T/C",[40],50.3%
same,"viability, T/C",[41],55%
same,"viability, T/C",[42],51%
Cc1cccc(N(C)C(=O)C2C(O)CCN2c2nc(C)cc(C(F)(F)F)c2C#N)c1 (centres undefined),"viability, T/C",compound 0.0316 µM,92.6% and 89.1% and 85.7%
same,"viability, T/C",compound 0.1 µM,69.5% and 106% and 83.8%
same,"viability, T/C",compound 0.316 µM,74.5% and 101% and 74.6%
same,"viability, T/C",compound 1 µM,94% and 109% and 85.7%
same,"viability, T/C",compound 3.16 µM,99.6% and 74.3% and 84.3%
same,"viability, T/C",compound 10 µM,111% and 91.5% and 99.2%
same,IC50,curve of compound,> 10 µM
CC(=O)O[C@H]1C(=O)[C@@]2(C)[C@H]([C@H](OC(=O)c3ccccc3)[C@]3(O)C[C@H](OC(=O)[C@H](O)[C@@H](NC(=O)c4ccccc4)c4ccccc4)C(C)=C1C3(C)C)[C@]1(OC(C)=O)CO[C@@H]1C[C@@H]2O + Cc1[nH]c2ccc(F)cc2c1-c1nc2c3cccnc3c3ncccc3c2[nH]1,IC50,[1],> 10 µM
same,IC50,[2],> 10 µM
same,IC50,[3],> 10 µM
same,IC50,[4],0.341 µM
same,IC50,[5],< 0.0316 µM
same,IC50,[6],< 0.0316 µM
same,"viability, T/C",[7],82.4%
same,"viability, T/C",[8],72%
same,"viability, T/C",[9],68.8%
same,"viability, T/C",[10],81.9%
same,"viability, T/C",[11],100%
same,"viability, T/C",[12],70.9%
same,"viability, T/C",[13],66.3%
same,"viability, T/C",[14],77.2%
same,"viability, T/C",[15],68.7%
same,"viability, T/C",[16],77.3%
same,"viability, T/C",[17],64.2%
same,"viability, T/C",[18],64.9%
same,"viability, T/C",[19],72.6%
same,"viability, T/C",[20],65.4%
same,"viability, T/C",[21],57.1%
same,"viability, T/C",[22],53.5%
same,"viability, T/C",[23],62.4%
same,"viability, T/C",[24],47.8%
same,"viability, T/C",[25],49.7%
same,"viability, T/C",[26],57%
same,"viability, T/C",[27],55.4%
same,"viability, T/C",[28],39.2%
same,"viability, T/C",[29],45.8%
same,"viability, T/C",[30],51.8%
same,"viability, T/C",[31],20.4%
same,"viability, T/C",[32],14.5%
same,"viability, T/C",[33],15.4%
same,"viability, T/C",[34],12.3%
same,"viability, T/C",[35],13.6%
same,"viability, T/C",[36],12.1%
same,"viability, T/C",[37],42.2%
same,"viability, T/C",[38],40.1%
same,"viability, T/C",[39],38.5%
same,"viability, T/C",[40],28.1%
same,"viability, T/C",[41],30.4%
same,"viability, T/C",[42],33.5%
CC(C)(O)C1CCC(Nc2ccc3ncc(-c4cccc(C(F)(F)F)c4)n3n2)CC1 (centres undefined) + Cc1[nH]c2ccc(F)cc2c1-c1nc2c3cccnc3c3ncccc3c2[nH]1,IC50,[1],2.15 µM
same,IC50,[2],0.922 µM
same,IC50,[3],0.558 µM
same,IC50,[4],< 0.0316 µM
same,IC50,[5],< 0.0316 µM
same,IC50,[6],< 0.0316 µM
same,"viability, T/C",[7],78.5%
same,"viability, T/C",[8],68.9%
same,"viability, T/C",[9],72.2%
same,"viability, T/C",[10],54.3%
same,"viability, T/C",[11],46.7%
same,"viability, T/C",[12],48.8%
same,"viability, T/C",[13],73.3%
same,"viability, T/C",[14],71%
same,"viability, T/C",[15],75.6%
same,"viability, T/C",[16],48.2%
same,"viability, T/C",[17],42.2%
same,"viability, T/C",[18],43.7%
same,"viability, T/C",[19],56.8%
same,"viability, T/C",[20],61%
same,"viability, T/C",[21],64.2%
same,"viability, T/C",[22],39%
same,"viability, T/C",[23],34.8%
same,"viability, T/C",[24],40.9%
same,"viability, T/C",[25],46.4%
same,"viability, T/C",[26],39.4%
same,"viability, T/C",[27],40%
same,"viability, T/C",[28],25.2%
same,"viability, T/C",[29],26.6%
same,"viability, T/C",[30],24.5%
same,"viability, T/C",[31],17.1%
same,"viability, T/C",[32],14.1%
same,"viability, T/C",[33],17.6%
same,"viability, T/C",[34],16.2%
same,"viability, T/C",[35],10.1%
same,"viability, T/C",[36],7.57%
same,"viability, T/C",[37],39.4%
same,"viability, T/C",[38],38%
same,"viability, T/C",[39],33.9%
same,"viability, T/C",[40],30.9%
same,"viability, T/C",[41],13.7%
same,"viability, T/C",[42],10.8%
C=CCn1c(=O)c2cnc(Nc3ccc(N4CCN(C)CC4)cc3)nc2n1-c1cccc(C(C)(C)O)n1,"viability, T/C",compound 0.0316 µM,108% and 106% and 77.9%
same,"viability, T/C",compound 0.1 µM,92.1% and 90.6% and 74.1%
same,"viability, T/C",compound 0.316 µM,70.8% and 73.3% and 90.3%
same,"viability, T/C",compound 1 µM,63.5% and 69.4% and 61.4%
same,"viability, T/C",compound 3.16 µM,73.4% and 78.4% and 80.3%
same,"viability, T/C",compound 10 µM,65.8% and 87.4% and 92.2%
same,IC50,curve of compound,> 10 µM
CC(C)n1c(=O)n(C)c2cnc3cc(F)c(-c4ccc(OCCCN5CCCCC5)nc4)cc3c21 + Cc1cnc(CNC(=O)c2c(=O)c3ccc(N4CCCN(C)CC4)nc3n3c2sc2ccccc23)cn1,IC50,[1],> 10 µM
same,IC50,[2],> 10 µM
same,IC50,[3],> 10 µM
same,IC50,[4],> 10 µM
same,IC50,[5],> 10 µM
same,IC50,[6],> 10 µM
same,"viability, T/C",[7],81.3%
same,"viability, T/C",[8],71.9%
same,"viability, T/C",[9],82.5%
same,"viability, T/C",[10],89.4%
same,"viability, T/C",[11],79.3%
same,"viability, T/C",[12],79.2%
same,"viability, T/C",[13],79%
same,"viability, T/C",[14],83.4%
same,"viability, T/C",[15],76.8%
same,"viability, T/C",[16],78.9%
same,"viability, T/C",[17],96.5%
same,"viability, T/C",[18],86.4%
same,"viability, T/C",[19],85.9%
same,"viability, T/C",[20],96.7%
same,"viability, T/C",[21],82.1%
same,"viability, T/C",[22],78.2%
same,"viability, T/C",[23],85.2%
same,"viability, T/C",[24],81.9%
same,"viability, T/C",[25],69.9%
same,"viability, T/C",[26],64.9%
same,"viability, T/C",[27],89.3%
same,"viability, T/C",[28],81.6%
same,"viability, T/C",[29],85%
same,"viability, T/C",[30],69.7%
same,"viability, T/C",[31],80.4%
same,"viability, T/C",[32],78%
same,"viability, T/C",[33],79.3%
same,"viability, T/C",[34],71.9%
same,"viability, T/C",[35],75%
same,"viability, T/C",[36],76.7%
same,"viability, T/C",[37],74.3%
same,"viability, T/C",[38],66.7%
same,"viability, T/C",[39],66.8%
same,"viability, T/C",[40],69.2%
same,"viability, T/C",[41],80.8%
same,"viability, T/C",[42],66.3%
O=C(NO)c1cnc(N2CCN(S(=O)(=O)c3ccc4ccccc4c3)CC2)nc1,"viability, T/C",compound 0.0316 µM,87% and 88.3% and 112%
same,"viability, T/C",compound 0.1 µM,108% and 125% and 89%
same,"viability, T/C",compound 0.316 µM,68.1% and 77.6% and 63.9%
same,"viability, T/C",compound 1 µM,1.97% and 0.86% and 8.3%
same,"viability, T/C",compound 3.16 µM,0.67% and 0.79% and 4.97%
same,"viability, T/C",compound 10 µM,1.35% and 1.12% and 3.62%
same,IC50,curve of compound,0.432 µM and 0.479 µM and 0.397 µM
